# Target: hSTING-R232 (Homo sapiens (Human), UniProt Q86WV6, H232R)
# Experiment: STING differential scanning fluorimetry (DSF) assay, WT human STING
# Details: WT (R232) human STING aa140-379, net shift in melting temperature
# Experimental: A STING DSF assay was performed to determine protein thermostability shift in response to small molecule ligand binding. A STING thermostability shift assay based on differential scanning fluorimetry was used to measure (1) the net shift in melting temperature (ΔTm)between the apo and ligand-bound states of the STING protein and (2) the concentration of the thermal denaturation transition (EC50) as a surrogate measure of binding affinity (K). […] Protein in assay buffer was transferred to a 384 well plate and incubated with the hydrophobic fluorescent dye SYBR Orange. A temperature ramp was applied to the plate and the resulting dye fluorescence was plotted as a function of temperature. The first derivative of this function (dF/dT) was then used to extrapolate the melting temperature of the protein at various concentrations of compound and determine the thermal denaturation profile of a protein/compound complex.
# • 1. Protein construct (affinity tag removal vs SUMO-fusion construct) • 2. Protein concentration • 3. Dye concentration • 4. Buffer • 5. Thermal ramp velocity • 6. DMSO tolerance • 7. Compound titration parameters • 8. […] 5 μM purified Target STING Protein • 3. 8 μM Sypro Orange Dye • 4. Buffer: 100 mM NaCl, 30 mM HEPES, pH 7.5 • 5. Thermal Ramp: 0.5° C./min • 6. <1% DMSO • 7. 11 point, 2 fold dilution, duplicate, 300 μM high concentrations • 8.
# hSTING-R232, sequence (Q86WV6 140-379 H232R): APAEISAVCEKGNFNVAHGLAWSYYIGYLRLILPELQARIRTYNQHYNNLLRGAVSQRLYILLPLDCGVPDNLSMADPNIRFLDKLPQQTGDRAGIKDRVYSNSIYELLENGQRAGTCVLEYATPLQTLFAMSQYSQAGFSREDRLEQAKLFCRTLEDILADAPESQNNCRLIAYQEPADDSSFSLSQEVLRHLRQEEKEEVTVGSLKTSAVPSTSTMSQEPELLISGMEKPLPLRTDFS
row,Compound,WT_DSF_hSWAT Tm Shift (° C.)
1,COc1c(Cl)ccc2c(=O)c3ccc(C)cc3n(CC(=O)NC#N)c12 [Compound 338],"C (“C” = 2-7° C,)"
2,COc1c(Cl)c(N)cc2c(=O)c3ccccc3n(CC(=O)O)c12 [Compound 316],B (“B” = 0-2° C.)
3,COc1c(Cl)ccc2c(=O)c3cc(O)c(C(C)C)cc3n(CC(=O)O)c12 [Compound 317],B (“B” = 0-2° C.)
4,COc1c(Cl)ccc2c(=O)c3cc(N)c(C(C)C)cc3n(CC(=O)O)c12 [Compound 320],A (“A” < 0° C.)
5,Cc1ccc2c(=O)c3ccc(Cl)c(OCc4ccccc4)c3n(CC(=O)O)c2c1 [Compound 285],D (“D” > 7° C.)
6,C[C@H](Oc1c(Cl)ccc2c(=O)c3ccccc3n(CC(=O)O)c12)c1ccccc1 [Compound 295],A (“A” < 0° C.)
7,COc1c(Cl)ccc2c(=O)c3ccc(NC(C)C)cc3n(CC(=O)O)c12 [Compound 300],"C (“C” = 2-7° C,)"
8,O=C(O)Cn1c2cc(Nc3cnc(Cl)cn3)ccc2c(=O)c2ccc(Cl)c(Cl)c21 [Compound 258],D (“D” > 7° C.)
9,O=C(O)Cn1c2cc(Cl)ccc2c(=O)c2ccc(Nc3ccccc3)cc21 [Compound 301],"C (“C” = 2-7° C,)"
10,COc1c(Cl)ccc2c(=O)c3ccc(C4CCCOC4)cc3n(CC(=O)O)c12 (stereo not drawn) [Compound 253],D (“D” > 7° C.)
11,CONC(=O)Cn1c2cc(C)ccc2c(=O)c2ccc(Cl)c(OC)c21 [Compound 339],B (“B” = 0-2° C.)
12,C[C@H]1CCCN1c1ccc2c(=O)c3ccc(Cl)c(Br)c3n(CC(=O)O)c2c1 [Compound 202],"C (“C” = 2-7° C,)"
13,O=C(O)Cn1c2ccccc2c(=O)c2ccc(Cl)c(-c3cccnc3)c21 [Compound 334],"C (“C” = 2-7° C,)"
14,CNc1ccc2c(=O)c3ccc(Cl)c(OC)c3n(CC(=O)O)c2c1 [Compound 299],"C (“C” = 2-7° C,)"
15,CSc1ccc2c(=O)c3ccc(Cl)c(Cl)c3n(CC(=O)O)c2c1 [Compound 137],"C (“C” = 2-7° C,)"
16,O=C(O)Cn1c2ccccc2c(=O)c2ccc(Cl)c(Oc3ccccc3)c21 [Compound 287],B (“B” = 0-2° C.)

# Now from value to compound:
row,WT_DSF_hSWAT Tm Shift (° C.),Compound
1,"C (“C” = 2-7° C,)",COc1c(Cl)ccc2c(=O)c3ccc(C(C)C)cc3n(CC(=O)NS(=O)(=O)C(F)(F)F)c12 [Compound 261]
2,D (“D” > 7° C.),CC(C)Nc1ccc2c(=O)c3ccc(Cl)c(-c4ccccc4)c3n(CC(=O)O)c2c1 [Compound 336]
3,D (“D” > 7° C.),COc1c(Cl)ccc2c(=O)c3ccc(C4=CCOCC4)cc3n(CC(=O)O)c12 [Compound 254]
4,D (“D” > 7° C.),COc1c(Cl)ccc2c(=O)c3ccc(-c4cccc(C)c4)cc3n(CC(=O)O)c12 [Compound 238]
5,A (“A” < 0° C.),CC(C)c1ccc2c3ccc(Cl)c(Cl)c3n(CC(=O)O)c2c1 [Compound 210]
6,D (“D” > 7° C.),CC(C)Sc1c(Cl)ccc2c(=O)c3ccc(C(C)(C)C)cc3n(CC(=O)O)c12 [Compound 290]
7,D (“D” > 7° C.),COc1c(Cl)ccc2c(=O)c3ccc(SC4CCCCC4)cc3n(CC(=O)O)c12 [Compound 233]
8,D (“D” > 7° C.),COc1c(Cl)ccc2c(=O)c3ccc(-c4ccoc4)cc3n(CC(=O)O)c12 [Compound 277]

# Target: STING protein (Homo sapiens (Human), UniProt Q86WV6, H232R)
# Experiment: Cell based reporter assay of IRF activation (IRF-luciferase), THP1-dual-KI R232
# Details: read-out: THP1-dual-KI R232_IRF(Luciferase)_Activity Maximum measured (%)
# STING protein, sequence (Q86WV6 whole entry H232R): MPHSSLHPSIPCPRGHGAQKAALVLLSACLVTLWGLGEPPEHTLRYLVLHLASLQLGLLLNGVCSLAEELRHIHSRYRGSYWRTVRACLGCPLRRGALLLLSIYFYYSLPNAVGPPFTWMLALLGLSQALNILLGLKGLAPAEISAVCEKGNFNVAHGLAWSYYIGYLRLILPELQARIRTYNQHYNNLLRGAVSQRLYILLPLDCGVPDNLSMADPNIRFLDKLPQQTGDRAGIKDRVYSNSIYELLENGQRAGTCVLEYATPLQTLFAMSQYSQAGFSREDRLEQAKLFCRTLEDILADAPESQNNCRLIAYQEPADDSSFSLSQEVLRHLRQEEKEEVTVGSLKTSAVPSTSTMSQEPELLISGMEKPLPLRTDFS
row,Compound,Emax
1,COc1c(Cl)ccc2c(=O)c3ccc(C)cc3n(CC(=O)NC#N)c12 [Compound 338],25 to 50%
2,COc1c(Cl)c(N)cc2c(=O)c3ccccc3n(CC(=O)O)c12 [Compound 316],< 5%
3,COc1c(Cl)ccc2c(=O)c3cc(O)c(C(C)C)cc3n(CC(=O)O)c12 [Compound 317],< 5%
4,COc1c(Cl)ccc2c(=O)c3cc(N)c(C(C)C)cc3n(CC(=O)O)c12 [Compound 320],< 5%
5,Cc1ccc2c(=O)c3ccc(Cl)c(OCc4ccccc4)c3n(CC(=O)O)c2c1 [Compound 285],25 to 50%
6,C[C@H](Oc1c(Cl)ccc2c(=O)c3ccccc3n(CC(=O)O)c12)c1ccccc1 [Compound 295],< 5%
7,COc1c(Cl)ccc2c(=O)c3ccc(NC(C)C)cc3n(CC(=O)O)c12 [Compound 300],> 50%
8,O=C(O)Cn1c2cc(Nc3cnc(Cl)cn3)ccc2c(=O)c2ccc(Cl)c(Cl)c21 [Compound 258],< 5%
9,O=C(O)Cn1c2cc(Cl)ccc2c(=O)c2ccc(Nc3ccccc3)cc21 [Compound 301],< 5%
10,COc1c(Cl)ccc2c(=O)c3ccc(C4CCCOC4)cc3n(CC(=O)O)c12 (stereo not drawn) [Compound 253],> 50%
11,CONC(=O)Cn1c2cc(C)ccc2c(=O)c2ccc(Cl)c(OC)c21 [Compound 339],25 to 50%
12,C[C@H]1CCCN1c1ccc2c(=O)c3ccc(Cl)c(Br)c3n(CC(=O)O)c2c1 [Compound 202],5 to 25%
13,O=C(O)Cn1c2ccccc2c(=O)c2ccc(Cl)c(-c3cccnc3)c21 [Compound 334],< 5%
14,CNc1ccc2c(=O)c3ccc(Cl)c(OC)c3n(CC(=O)O)c2c1 [Compound 299],> 50%
15,CSc1ccc2c(=O)c3ccc(Cl)c(Cl)c3n(CC(=O)O)c2c1 [Compound 137],25 to 50%
16,O=C(O)Cn1c2ccccc2c(=O)c2ccc(Cl)c(Oc3ccccc3)c21 [Compound 287],< 5%

# Other lines, results leading:
row,Emax,Compound
1,< 5%,COc1c(Cl)ccc2c(=O)c3ccc(C(C)C)cc3n(CC(=O)NS(=O)(=O)C(F)(F)F)c12 [Compound 261]
2,> 50%,CC(C)Nc1ccc2c(=O)c3ccc(Cl)c(-c4ccccc4)c3n(CC(=O)O)c2c1 [Compound 336]
3,> 50%,COc1c(Cl)ccc2c(=O)c3ccc(C4=CCOCC4)cc3n(CC(=O)O)c12 [Compound 254]
4,> 50%,COc1c(Cl)ccc2c(=O)c3ccc(-c4cccc(C)c4)cc3n(CC(=O)O)c12 [Compound 238]
5,< 5%,CC(C)c1ccc2c3ccc(Cl)c(Cl)c3n(CC(=O)O)c2c1 [Compound 210]
6,25 to 50%,CC(C)Sc1c(Cl)ccc2c(=O)c3ccc(C(C)(C)C)cc3n(CC(=O)O)c12 [Compound 290]
7,> 50%,COc1c(Cl)ccc2c(=O)c3ccc(SC4CCCCC4)cc3n(CC(=O)O)c12 [Compound 233]
8,> 50%,COc1c(Cl)ccc2c(=O)c3ccc(-c4ccoc4)cc3n(CC(=O)O)c12 [Compound 277]

# Target: hSTING-WT (Homo sapiens (Human), UniProt Q86WV6, H232R)
# Experiment: Radiometric filtration binding competition assay, hSTING-WT
# Details: not given
# hSTING-WT, sequence (Q86WV6 140-379 H232R): as the sequence (Q86WV6 140-379 H232R) above
row,Compound,IC50
1,COc1c(Cl)ccc2c(=O)c3ccc(C)cc3n(CC(=O)NC#N)c12 [Compound 338],100 to 300 µM
2,COc1c(Cl)c(N)cc2c(=O)c3ccccc3n(CC(=O)O)c12 [Compound 316],> 300 µM
3,COc1c(Cl)ccc2c(=O)c3cc(O)c(C(C)C)cc3n(CC(=O)O)c12 [Compound 317],> 300 µM
4,COc1c(Cl)ccc2c(=O)c3cc(N)c(C(C)C)cc3n(CC(=O)O)c12 [Compound 320],100 to 300 µM
5,Cc1ccc2c(=O)c3ccc(Cl)c(OCc4ccccc4)c3n(CC(=O)O)c2c1 [Compound 285],20 to 100 µM
6,C[C@H](Oc1c(Cl)ccc2c(=O)c3ccccc3n(CC(=O)O)c12)c1ccccc1 [Compound 295],100 to 300 µM
7,COc1c(Cl)ccc2c(=O)c3ccc(NC(C)C)cc3n(CC(=O)O)c12 [Compound 300],20 to 100 µM
8,O=C(O)Cn1c2cc(Nc3cnc(Cl)cn3)ccc2c(=O)c2ccc(Cl)c(Cl)c21 [Compound 258],20 to 100 µM
9,O=C(O)Cn1c2cc(Cl)ccc2c(=O)c2ccc(Nc3ccccc3)cc21 [Compound 301],20 to 100 µM
10,COc1c(Cl)ccc2c(=O)c3ccc(C4CCCOC4)cc3n(CC(=O)O)c12 (stereo not drawn) [Compound 253],20 to 100 µM
11,CONC(=O)Cn1c2cc(C)ccc2c(=O)c2ccc(Cl)c(OC)c21 [Compound 339],> 300 µM
12,C[C@H]1CCCN1c1ccc2c(=O)c3ccc(Cl)c(Br)c3n(CC(=O)O)c2c1 [Compound 202],20 to 100 µM
13,O=C(O)Cn1c2ccccc2c(=O)c2ccc(Cl)c(-c3cccnc3)c21 [Compound 334],> 300 µM
14,CNc1ccc2c(=O)c3ccc(Cl)c(OC)c3n(CC(=O)O)c2c1 [Compound 299],20 to 100 µM
15,CSc1ccc2c(=O)c3ccc(Cl)c(Cl)c3n(CC(=O)O)c2c1 [Compound 137],100 to 300 µM
16,O=C(O)Cn1c2ccccc2c(=O)c2ccc(Cl)c(Oc3ccccc3)c21 [Compound 287],> 300 µM

# Continued, values first:
row,IC50,Compound
1,20 to 100 µM,COc1c(Cl)ccc2c(=O)c3ccc(C(C)C)cc3n(CC(=O)NS(=O)(=O)C(F)(F)F)c12 [Compound 261]
2,< 20 µM,CC(C)Nc1ccc2c(=O)c3ccc(Cl)c(-c4ccccc4)c3n(CC(=O)O)c2c1 [Compound 336]
3,20 to 100 µM,COc1c(Cl)ccc2c(=O)c3ccc(C4=CCOCC4)cc3n(CC(=O)O)c12 [Compound 254]
4,< 20 µM,COc1c(Cl)ccc2c(=O)c3ccc(-c4cccc(C)c4)cc3n(CC(=O)O)c12 [Compound 238]
5,20 to 100 µM,CC(C)c1ccc2c3ccc(Cl)c(Cl)c3n(CC(=O)O)c2c1 [Compound 210]
6,< 20 µM,CC(C)Sc1c(Cl)ccc2c(=O)c3ccc(C(C)(C)C)cc3n(CC(=O)O)c12 [Compound 290]
7,< 20 µM,COc1c(Cl)ccc2c(=O)c3ccc(SC4CCCCC4)cc3n(CC(=O)O)c12 [Compound 233]
8,< 20 µM,COc1c(Cl)ccc2c(=O)c3ccc(-c4ccoc4)cc3n(CC(=O)O)c12 [Compound 277]

# Target: mSTING (Mus musculus, UniProt Q3TBT3)
# Experiment: Radiometric filtration binding competition assay, mSTING
# Details: not given
row,Compound,IC50
1,COc1c(Cl)c(N)cc2c(=O)c3ccccc3n(CC(=O)O)c12 [Compound 316],> 300 µM
2,COc1c(Cl)ccc2c(=O)c3cc(O)c(C(C)C)cc3n(CC(=O)O)c12 [Compound 317],> 300 µM
3,COc1c(Cl)ccc2c(=O)c3cc(N)c(C(C)C)cc3n(CC(=O)O)c12 [Compound 320],> 300 µM
4,Cc1ccc2c(=O)c3ccc(Cl)c(OCc4ccccc4)c3n(CC(=O)O)c2c1 [Compound 285],20 to 100 µM
5,C[C@H](Oc1c(Cl)ccc2c(=O)c3ccccc3n(CC(=O)O)c12)c1ccccc1 [Compound 295],> 300 µM
6,O=C(O)Cn1c2cc(Cl)ccc2c(=O)c2ccc(Nc3ccccc3)cc21 [Compound 301],< 20 µM
7,COc1c(Cl)ccc2c(=O)c3ccc(C4CCCOC4)cc3n(CC(=O)O)c12 (stereo not drawn) [Compound 253],20 to 100 µM

# Next, values leading:
row,IC50,Compound
1,20 to 100 µM,COc1c(Cl)ccc2c(=O)c3ccc(C(C)C)cc3n(CC(=O)NS(=O)(=O)C(F)(F)F)c12 [Compound 261]
2,20 to 100 µM,CC(C)Sc1c(Cl)ccc2c(=O)c3ccc(C(C)(C)C)cc3n(CC(=O)O)c12 [Compound 290]
